{
  "source": "patent US10799540B2",
  "about": "“Faecalibacterium longum and application thereof” (BGI SHENZHEN, priority 2016, dated 2020)",
  "key": {"T2D model mice [1]": {"system": "T2D model mice", "test": "Body weight change of T2D model mice treated by gavage for 2 months", "type": "in vivo, C57bL/6 mice", "conditions": "intragastric treatment"}, "T2D model mice [2]": {"system": "T2D model mice", "test": "Fasting blood glucose (FBG) in T2D model mice", "type": "in vivo, C57bL/6 mice"}, "T2D model mice [3]": {"system": "T2D model mice", "test": "Glucose tolerance (OGTT) in T2D model mice", "type": "in vivo, C57bL/6 mice", "conditions": "before sacrifice"}, "T2D model mice [4]": {"system": "T2D model mice", "test": "Serum blood lipids in T2D model mice at end of experiment", "conditions": "after 2 months of treatment"}},
  "note": "Marks after values point to notes of the source that are not given here.",
  "data": [
    {"smiles": "CN(C)C(=N)N=C(N)N", "note": "[Metformin, metformin]", "values": [
      {"measurement": "body weight", "setting": "T2D model mice [1]; 1 week", "result": 21.54, "unit": "g"},
      {"measurement": "body weight", "setting": "T2D model mice [1]; 3 weeks", "result": 23.42, "unit": "g"},
      {"measurement": "body weight", "setting": "T2D model mice [1]; 5 weeks", "result": 25.23, "unit": "g"},
      {"measurement": "body weight", "setting": "T2D model mice [1]; 7 weeks", "result": 26.6, "unit": "g"},
      {"measurement": "body weight", "setting": "T2D model mice [1]; 9 weeks", "result": "27.49* g"},
      {"measurement": "fasting blood glucose", "setting": "T2D model mice [2]; week five", "result": 14.6, "unit": "mmol/L"},
      {"measurement": "fasting blood glucose", "setting": "T2D model mice [2]; week nine", "result": "9.8** mmol/L"},
      {"measurement": "fasting blood glucose", "setting": "T2D model mice [2]; week one", "result": 16.7, "unit": "mmol/L"},
      {"measurement": "fasting blood glucose", "setting": "T2D model mice [2]; week seven", "result": "12.1* mmol/L"},
      {"measurement": "fasting blood glucose", "setting": "T2D model mice [2]; week three", "result": 15.8, "unit": "mmol/L"},
      {"measurement": "blood glucose in glucose tolerance test (OGTT)", "setting": "T2D model mice [3]; 0 min after glucose gavage", "result": 9.2, "unit": "mmol/L"},
      {"measurement": "blood glucose in glucose tolerance test (OGTT)", "setting": "T2D model mice [3]; 30 min after glucose gavage", "result": 19.5, "unit": "mmol/L"},
      {"measurement": "blood glucose in glucose tolerance test (OGTT)", "setting": "T2D model mice [3]; 60 min after glucose gavage", "result": 16.1, "unit": "mmol/L"},
      {"measurement": "blood glucose in glucose tolerance test (OGTT)", "setting": "T2D model mice [3]; 90 min after glucose gavage", "result": "10.9* mmol/L"},
      {"measurement": "blood glucose in glucose tolerance test (OGTT)", "setting": "T2D model mice [3]; 120 min after glucose gavage", "result": "10.1* mmol/L"},
      {"measurement": "blood glucose in glucose tolerance test (OGTT)", "setting": "T2D model mice [3]; 120 min after glucose gavage, listed as metformin", "result": 9.8, "unit": "mmol/L"},
      {"measurement": "HDLC (high-density lipoprotein)", "setting": "T2D model mice [4]", "result": "3.023* mmol/L"},
      {"measurement": "LDLC (low density lipoprotein)", "setting": "T2D model mice [4]", "result": "1.533* mmol/L"},
      {"measurement": "TC (total cholesterol)", "setting": "T2D model mice [4]", "result": 5.923, "unit": "mmol/L"},
      {"measurement": "TG (triglyceride)", "setting": "T2D model mice [4]", "result": 1.565, "unit": "mmol/L"}
    ]}
  ]
}
